SMILES strings stand for the structures.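 Each compound was tested at five concentrations against cells in 96-well plates for 48 hours. Here, GI50 denotes the concentration required for 50% inhibition of growth.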 Calls of active or inactive are those of the source. No stated cut-off is given here; in the data, active = GI50 up to about 1.1 µM and inactive = higher.

Assay in all cases: growth of human tumour cells (NCI), 48 h
For assay [1], the system named is A498.
For assay [2], the system named is BT-549.
In assay [3] the test system is CAKI-1.
Assay [4] relates to COLO 205.
The subject of assay [5] is HCC 2998.
In assay [6] the test system is HL-60.
The test system of assay [7] is HT-29.
For assay [8], the system named is K562.
Assay [9] deals with NCI-H226.
Assay [10] has as its system NCI-H522.
For assay [11], the system named is OVCAR-3.
Assay [12] concerns OVCAR-8.
In assay [13] the test system is PC-3.
The test system of assay [14] is RPMI-8226.
In assay [15] the test system is SF-295.
Assay [16] deals with SK-MEL-2.
For assay [17], the system named is SNB-19.
Assay [18] relates to UACC-257.
The test system of assay [19] is UO-31.

Consider `Cc1cc(O)ccc1C1(c2ccc(F)cc2)OC(=O)c2ccccc21` (stereo unspecified), for which the GI50 is 13.6 µM (inactive) in [1]; 0.208 µM (active) in [2]; 3.78 µM (inactive) in [3]; 1.82 µM (inactive) in assay [4]; 4.33 µM (inactive) in assay [5]; 34 µM (inactive) in assay [6]. Moreover, the GI50 in [7] was 5.09 µM (inactive); in assay [8], 6.87 µM (inactive); in assay [9], 2.38 µM (inactive); in assay [10] it was 0.646 µM (active); in assay [11], 0.236 µM (active); in [12], 0.413 µM (active). Moreover, the GI50 in assay [13] is 2.24 µM (inactive); in assay [14] it was 21.7 µM (inactive); in [15], 3.48 µM (inactive); in [16], 3.93 µM (inactive); in assay [17] it was 4.15 µM (inactive); in assay [18] it was 12.6 µM (inactive). In addition, the GI50 in assay [19] is 4 µM (inactive).
`CCN(CC)CCn1c2cc3c(cc2c(=O)c2cccnc21)OCO3`: the GI50 was 3.91 µM (inactive) in [1]; > 10 µM (inactive) in assay [2]; 9.14 µM (inactive) in [3]; 2.85 µM (inactive) in [4]; 9.04 µM (inactive) in assay [5]; 4.58 µM (inactive) in assay [6]. Further, the GI50 in [7] was 4.04 µM (inactive); in [9] it was 5.01 µM (inactive); in assay [10], 6.71 µM (inactive); in assay [11], 5.14 µM (inactive); in assay [12], 4.62 µM (inactive); in [13] it was 7.43 µM (inactive). The GI50 in assay [14] was 3.93 µM (inactive); in assay [15], 4.71 µM (inactive); in assay [16] it was 9.91 µM (inactive); in [17], 8.07 µM (inactive); in assay [18], 6.1 µM (inactive).
Regarding `COc1cnnc2c(C)c(-c3ccccc3)nn12`, the GI50 was 29.2 µM (inactive) in [1]; > 100 µM (inactive) in assay [2]; 57 µM (inactive) in assay [3]; > 100 µM (inactive) in [4]; > 100 µM (inactive) in assay [5]; > 100 µM (inactive) in assay [6]. Besides, the GI50 in [7] was > 100 µM (inactive); in assay [8], > 100 µM (inactive); in assay [9], > 100 µM (inactive); in [10], > 93.5 µM (inactive); in assay [11], 59.2 µM (inactive); in [12], > 100 µM (inactive). In addition, the GI50 is > 86.5 µM (inactive) in assay [13]; 56.5 µM (inactive) in assay [14]; > 78.7 µM (inactive) in assay [15]; 40.4 µM (inactive) in assay [16]; > 77.6 µM (inactive) in assay [17]; > 90.8 µM (inactive) in [18]. In addition, the GI50 in [19] is 32.5 µM (inactive).
For `Cc1c2c(OCCN3CCCCC3)nn(C)c(=O)c2c(C)n1-c1ccccc1`, the GI50 in assay [1] is 16.4 µM (inactive); in assay [2], 44.4 µM (inactive); in assay [3], 32.9 µM (inactive); in assay [4] it was 17.7 µM (inactive); in assay [5], 28.1 µM (inactive); in assay [6] it was 31 µM (inactive). In addition, the GI50 in assay [7] was 30.9 µM (inactive); in assay [8], 27.7 µM (inactive); in [9], 38 µM (inactive); in assay [10] it was 26.7 µM (inactive); in assay [11], 77.6 µM (inactive); in assay [12], 74.8 µM (inactive). Also, the GI50 in assay [13] was 30.1 µM (inactive); in assay [14], 23.6 µM (inactive); in assay [15], 21.2 µM (inactive); in [16] it was 17 µM (inactive); in assay [17], 77.1 µM (inactive); in assay [18] it was 22.1 µM (inactive). Moreover, the GI50 in assay [19] was 12.2 µM (inactive).
Take `COc1cccc(C2c3cc4c(cc3OC(C)(N3CCCC3)C2C)OCO4)c1O` (stereo unspecified): the GI50 in assay [1] is 6.4 µM (inactive); in assay [2], 3.26 µM (inactive); in assay [3] it was 5.83 µM (inactive); in assay [4], 3.13 µM (inactive); in assay [5] it was 8.09 µM (inactive); in [6] it was 2.71 µM (inactive). Besides, the GI50 in [7] was 2.36 µM (inactive); in [8] it was 3.45 µM (inactive); in assay [9], 4.49 µM (inactive); in assay [10], 2.05 µM (inactive); in assay [11] it was 2.05 µM (inactive); in assay [12], 7.87 µM (inactive). Besides, the GI50 in [13] was 3.32 µM (inactive); in assay [14], 5.32 µM (inactive); in [15], 4.9 µM (inactive); in assay [16], 4.98 µM (inactive); in [17] it was 4.06 µM (inactive); in assay [18], 5.05 µM (inactive). Moreover, the GI50 in assay [19] is 10.9 µM (inactive).
Take `CCCC(=O)Nc1cc(/C=C/C(=O)N2CC(CCl)c3ccc(N)cc32)n(C)c1` (stereo unspecified): the GI50 in assay [1] is 0.0223 µM (active); in [2], 0.193 µM (active); in [3], 0.0441 µM (active); in [4], 0.134 µM (active); in assay [5], 0.0908 µM (active); in assay [6] it was 0.206 µM (active). For the same compound, the GI50 in assay [7] is 0.284 µM (active); in assay [8] it was 0.116 µM (active); in [9] it was 0.282 µM (active); in [10], < 0.0113 µM (active); in assay [11], 0.268 µM (active); in assay [12], 0.267 µM (active). For the same compound, the GI50 in assay [13] is 0.215 µM (active); in [14] it was 0.177 µM (active); in assay [15], 0.214 µM (active); in assay [16] it was 0.212 µM (active); in assay [17], 0.406 µM (active); in assay [18], 0.195 µM (active). For the same compound, the GI50 in assay [19] is 0.159 µM (active).
For `C=C1C(=O)O[C@@H]2O[C@@]3(C)CC[C@H]4[C@H](C)CC[C@@H]1[C@@]24O3` [DEOXYARTEMISITENE], the GI50 is 34.6 µM (inactive) in assay [1]; 7.46 µM (inactive) in assay [2]; 15.7 µM (inactive) in assay [3]; 11.9 µM (inactive) in assay [4]; 21.9 µM (inactive) in [5]; 2.63 µM (inactive) in assay [6]. The GI50 was 17.8 µM (inactive) in assay [7]; 3.56 µM (inactive) in assay [8]; 40 µM (inactive) in assay [9]; 6.58 µM (inactive) in [10]; 22.2 µM (inactive) in assay [11]; 19.5 µM (inactive) in [13]. The GI50 in assay [14] was 6.37 µM (inactive); in [15] it was 27.1 µM (inactive); in assay [16], 18.2 µM (inactive); in [17], 47.2 µM (inactive); in assay [18] it was 18.9 µM (inactive); in assay [19], 19.3 µM (inactive).
Take `Cc1cccc2c(=O)c3c(O)cc(O)cc3n(C)c12`: the GI50 in assay [1] is 7.29 µM (inactive); in [2], > 100 µM (inactive); in [3] it was > 100 µM (inactive); in [4], > 100 µM (inactive); in assay [5] it was > 100 µM (inactive); in assay [6], > 100 µM (inactive). Moreover, the GI50 in [7] is > 100 µM (inactive); in [8], 63.5 µM (inactive); in [9] it was > 100 µM (inactive); in assay [10] it was > 100 µM (inactive); in [11], > 100 µM (inactive); in [12] it was > 100 µM (inactive). In addition, the GI50 in assay [13], in assay [14], in assay [15], in [16], in [17] and in assay [18] was > 100 µM (inactive) in each case.
Consider `CC1(C)CCCC2(C)C3=C(CCC12)C(=O)OC3` (stereo unspecified), for which the GI50 in assay [1] was > 100 µM (inactive); in assay [2], 80.5 µM (inactive); in [3], 53.6 µM (inactive); in [4], > 100 µM (inactive); in assay [5], > 100 µM (inactive); in [6] it was 17.6 µM (inactive). For the same compound, the GI50 in assay [7] was 66.7 µM (inactive); in assay [9] it was > 100 µM (inactive); in assay [10], > 100 µM (inactive); in assay [11] it was > 100 µM (inactive); in assay [12], > 100 µM (inactive); in [13], > 100 µM (inactive). Further, the GI50 is 19.6 µM (inactive) in [14]; > 100 µM (inactive) in assay [15]; > 100 µM (inactive) in assay [16]; > 100 µM (inactive) in assay [18]; 38.9 µM (inactive) in assay [19].
For `C=CCO/N=C/c1cc(/N=C(/S)c2ccoc2C)ccc1Cl`, the GI50 is 20 µM (inactive) in assay [1]; 16.2 µM (inactive) in [2]; 9.84 µM (inactive) in [3]; 12.4 µM (inactive) in assay [4]; 10.5 µM (inactive) in [5]; 20.6 µM (inactive) in [6]. The GI50 in assay [7] was 10.3 µM (inactive); in [9], 15.9 µM (inactive); in assay [10], 8.22 µM (inactive); in assay [11], 11.5 µM (inactive); in assay [12] it was 13.5 µM (inactive); in [13], 11.4 µM (inactive). Moreover, the GI50 is 3.27 µM (inactive) in [14]; 9.48 µM (inactive) in assay [15]; 13.6 µM (inactive) in assay [16]; 7.28 µM (inactive) in assay [17]; 14.9 µM (inactive) in assay [18]; 5.15 µM (inactive) in assay [19].
Consider `Cc1c(C)c(C)c(-n2c(=O)n(C)c(=O)n2-n2c(=O)n(C)c(=O)n2-c2c(C)c(C)c(C)c(C)c2C)c(C)c1C`, for which the GI50 is > 100 µM (inactive) in assay [1]; > 100 µM (inactive) in assay [2]; > 100 µM (inactive) in assay [3]; > 100 µM (inactive) in assay [4]; > 100 µM (inactive) in [5]; 12.1 µM (inactive) in assay [6]. Besides, the GI50 in [7] is > 100 µM (inactive); in assay [8] it was > 100 µM (inactive); in assay [9], 37.8 µM (inactive); in assay [10] it was 44.2 µM (inactive); in assay [11], > 100 µM (inactive); in assay [12], > 100 µM (inactive). Moreover, the GI50 in assay [13], in assay [14], in assay [16], in [17], in assay [18] and in assay [19] was > 100 µM (inactive) throughout.

Source of the values: ChEMBL document CHEMBL1201862, “PubChem BioAssay data set” (2004).
